Experimental findings from article PMC4359714 (Naunyn-Schmiedeberg's Archives of Pharmacology, 2015) are described below.

For data set [1], the system named is cutaneous C fibers. As to the kind of experiment: Skin-nerve preparation, mechanically induced firing in cutaneous C fibers. Details: species or system mouse. To be noted: 10 μM; sustained force 5-245 mN; compared to vehicle. The text has this:
Adult C57BL/6 mice were obtained from Jackson Laboratories and used for ex vivo skin-nerve preparations. Mice were allowed to acclimate to the animal facility at the Medical College of Wisconsin, an Association for the Assessment and Accreditation of Laboratory Animal […] (AALAC)-accredited facility, for approximately 1 week following shipment. Animals were housed with up to four other cagemates and had ad libitum access to food pellets and hyper-chlorinated water. Mice were housed on a 14:10 h light-dark cycle in cages containing aspen bedding and paper nesting material. Room temperatures averaged 21 °C. Prior to use, animals were briefly anesthetized with inhaled isoflurane and then sacrificed via cervical dislocation.
The mouse saphenous skin-nerve in vitro preparation (Koltzenburg et al. [1997]; Stucky et al. [1999]) was used for electrophysiological recordings of cutaneous terminals of primary afferent fibers in situ. […] Once a unit with a signal to noise ratio >2 was identified, the mechanical threshold was determined using calibrated von Frey filaments (range, 0.44–147.0 mN). […]
Wave forms of action potentials evoked by mechanical stimuli were saved on an oscilloscope for comparison of shape and profile. […] Action potentials were discriminated and counted off-line using a spike histogram software extension. […] All data was also analyzed in a blinded manner.

Data set [2] can be described thus: Pharmacokinetics in plasma and brain, male Sprague-Dawley rats. Format: in vivo. To be noted: male Sprague-Dawley rat.
Description: Plasma pharmacokinetics of each compound in male Sprague-Dawley rats (n = 3 animals per study) were determined after intravenous dosing at 2 mg/kg in 100 % dimethylsulfoxide (DMSO) or after administration of 5 mg/kg by oral gavage with test article formulated in 5 % Tween 80 in OraPlus®. At designated time points, blood was collected via the femoral artery and processed for plasma by centrifugation. Plasma was then transferred into a 96-well container and stored in a freezer maintained at −70 °C. Similar bioanalytical methods were used to determine plasma and brain exposure in animals tested in pharmacodynamic and pain models. Brain samples were homogenized with a 4:1 ratio of water (mL) for every gram of brain tissue. […] Calibration standards were prepared from a 1 mg/mL stock solution of each compound in DMSO with a serial dilution into a blank matrix (plasma or brain homogenate). Liquid chromatography with tandem mass spectrometry was used for the quantitation of each compound in rat plasma and brain. Non-compartmental pharmacokinetic analysis of plasma concentrations was conducted using WinNonlin Enterprise v.5.1.1 (Pharsight Corporation, Mountain View, CA). Brain uptake was calculated as a ratio of concentration in whole brain tissue to that in plasma taken from the same animal at approximately the same time.
The test system of data set [3] is rats. The experiment in a line: Open field activity. The data set is classed as in vivo, rat. To be noted: 100 mg/kg, 2 h before; 60 min; not significantly different from vehicle (14,484 ± 1686 cm). The procedure: Rats were habituated in a reversed light cycle room in home cages for at least 1 week and acclimated to the testing room for 1 h prior to dosing. TRPM8 antagonist (10, 30, or 100 mg/kg) or vehicle (5 % Tween 80 in OraPlus®) was injected 2 h before placing an animal in the open-field apparatus. Open-field activity was measured using a system that counts interruptions of a set of photobeams for the course of 60 min (Kinder Scientific, Poway, CA). To begin a session, animals were removed from the home cage and placed individually into an independent Plexiglas box (41 cm L × 41 cm W × 38 cm H) surrounded by a frame consisting of 32 photocells (16Y and 16X) that track the movement of the animal. Photobeam breaks were used as an indication of activity and were measured as the following parameters per minute: basic movements (beam breaks), distance traveled (cm), time spent (s), and number of repetitive beam breaks (i.e., stereotypic movement). Chlordiazepoxide, which consistently elicits a decrease in open field activity, was used as a positive control. Chlordiazepoxide was formulated in saline at 5.6 mg/kg i.p. and dosed 30 min before the start of the open field assay.

In data set [4] the target is T1, rat TRPV1 (Rattus norvegicus, UniProt O35433).
T1 construct: expressed in transfected cells; host or cells: CHO, constitutive expression, co-transfected with aequorin
The experiment in a line: Luminescence (aequorin) readout of intracellular calcium, CHO cells expressing rat TRPV1, capsaicin activation. The data set is classed as cell-based. The conditions noted are these: 0.5 uM capsaicin, read-out: rTRPV1 IC50. The text has this:
Stable Chinese hamster ovary (CHO) cell lines expressing rat TRPA1, rat TRPM8, rat TRPV3, and human TRPV4 were generated using the tetracycline-inducible T-REx™ expression system from Invitrogen (Carlsbad, CA) and a stable CHO cell line expressing rat TRPV1 was generated using a constitutive expression system (Klionsky et al. [2007]). To enable a luminescence readout based on intracellular increase in calcium (Le Poul et al. [2002]), each cell line was also co-transfected with pcDNA3.1 plasmid containing jelly fish aequorin cDNA. Twenty-four hours before the assay, cells were seeded in 96-well plates and all TRP channel expression, except for TRPV1, was induced with 0.5 ug/mL tetracycline. […] Luminescence was measured by a CCD camera-based FLASH-luminometer built by Amgen, Inc. The following agonists were used to activate TRP channels: 0.5 uM capsaicin for TRPV1, 80 uM allyl isothiocyanate (AITC) for TRPA1, 1 uM icilin or cold buffer (12 °C) for TRPM8, 200 uM aminoethoxydiphenyl borate (2-APB) for TRPV3, and 1 uM 4α-phorbol 12,13-didecanoate (4α-PDD) for TRPV4. Antagonist IC50 values were calculated using GraphPad Prism 4.01 (GraphPad Software Inc, San Diego, CA).
In general terms: Calcium flux is commonly read through the fluorescence of an indicator in the cells.

Data set [5] relates to cold pressor effect in rats. The experiment in a line: Cold-induced increase in blood pressure, cold pressor test (CPT). Format: in vivo, rat. To be noted: 10 mg/kg p.o. The procedure:
2 h prior to anesthesia with sodium pentobarbital at 60 mg/kg i.p. Blood pressure was recorded for 5 min for “pre-cold baseline” and an additional 5 min during immersion of the paws and ventral half of the body in ice water. Mean blood pressure (MBP) was derived electronically using Digi-Med Blood Pressure Analyzer (Model 400). Plasma was collected through the artery catheter immediately after the cold pressor test for pharmacokinetic analysis. Percent increase from baseline and percent inhibition attributed to treatment with test compound were then determined using the following formula: (1) percent increase from baseline (mmHg) cold pressor effect = [(cold-evoked change in MBP)/MBP pre-cold] × 100; (2) percent inhibition of cold pressor effect = [1 − (cold-evoked change in MBP post-test compound/cold-evoked change in MBP post-vehicle)] × 100.

T1 sequence (O35433 whole entry): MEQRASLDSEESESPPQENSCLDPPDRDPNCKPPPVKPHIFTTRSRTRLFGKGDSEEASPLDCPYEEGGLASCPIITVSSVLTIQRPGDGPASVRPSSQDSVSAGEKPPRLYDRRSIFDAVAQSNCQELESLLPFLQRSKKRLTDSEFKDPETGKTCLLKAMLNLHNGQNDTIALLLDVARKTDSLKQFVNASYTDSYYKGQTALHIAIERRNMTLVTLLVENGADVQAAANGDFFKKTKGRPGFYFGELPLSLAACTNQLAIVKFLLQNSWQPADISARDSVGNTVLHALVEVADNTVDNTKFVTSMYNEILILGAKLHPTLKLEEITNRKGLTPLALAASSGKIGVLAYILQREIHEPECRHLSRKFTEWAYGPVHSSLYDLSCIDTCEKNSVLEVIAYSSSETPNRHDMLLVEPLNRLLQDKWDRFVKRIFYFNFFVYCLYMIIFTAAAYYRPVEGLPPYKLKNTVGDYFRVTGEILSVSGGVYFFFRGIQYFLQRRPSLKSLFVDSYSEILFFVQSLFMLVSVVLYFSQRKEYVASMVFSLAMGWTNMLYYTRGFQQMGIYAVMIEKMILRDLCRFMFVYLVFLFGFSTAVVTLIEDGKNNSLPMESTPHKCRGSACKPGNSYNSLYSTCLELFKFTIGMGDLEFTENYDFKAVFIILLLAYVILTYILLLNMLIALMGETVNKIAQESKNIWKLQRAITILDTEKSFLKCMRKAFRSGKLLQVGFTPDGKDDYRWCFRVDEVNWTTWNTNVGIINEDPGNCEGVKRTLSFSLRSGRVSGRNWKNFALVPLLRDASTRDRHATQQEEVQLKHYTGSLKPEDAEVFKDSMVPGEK

For the compound `C[C@H](NC(=O)N1CCc2cccnc2[C@H]1c1ccc(C(F)(F)F)cc1)C(F)(F)F` [AMG2850, (R)-8-(4-(trifluoromethyl)phenyl)-N-((S)-1,1,1-trifluoropropan-2-yl)-5,6-dihydro-1,7-naphthyridine-7(8H)-carboxamide], the “effect on mechanical firing in C fibers” value in data set [1] is given as “no significant effect”. In data set [2] (5 mg/kg oral gavage), this compound had an Oral bioavailability of 47%. Further, in data set [2] (plasma, iv, i.v. 2 mg/kg), the clearance (commonly a measure of how efficiently the substance is removed, as volume per time) was 7.83 mL/min/kg. Also, the bioavailability (usually dose-corrected exposure relative to a reference, in per cent) in data set [2] (plasma, 5 mg/kg oral gavage) is more than 40%. Moreover, the “total distance traveled, open field” value in data set [3] is reported as 13,640 ± 623 cm. For the same compound, the IC50 (usually the concentration that inhibits the measured activity by half) in data set [4] is more than 25 µM. Moreover, the “effect on cold pressor response” value in data set [5] was “fully blocked”.
